Results: patent publication US8697382B2, “Method of identifying metallo-β-lactamase-producing bacteria” (Meiji Seika Pharma Co., Ltd., priority 2009, dated 2014)

System: IMP-1-producing Pseudomonas aeruginosa
Assay: Disk diffusion test: β-lactam agent disks placed 20 mm from a central compound (I) disk; growth inhibition zone radius measured
Format: cell-based
Details: Muller-Hinton agar, overnight culture at 35° C.; for Ratio = Maximum/Minimum inhibition zone radius (degree of change in radius, A3/B3/C3): change caused by the compound (I) disk; for Inhibition zone radius, Maximum (A2/B2/C2): subzone on the compound (I) (disodium 2,3-diethylmaleate) disk side, subject to the metallo-β-lactamase inhibitor; for Inhibition zone radius, Minimum (A1/B1/C1): subzone on the side opposite to the compound (I) disk, not subject to the metallo-β-lactamase inhibitor
Description: When the bacteria to be tested are MBL-producing bacteria, the shape of an inhibition zone formed around each β-lactam agent varies depending on the effect of the metallo-β-lactamase inhibitor (compound (I)). In this case, the inhibition zone formed around each β-lactam agent can be divided into two subzones (i.e., an inhibition subzone formed on the side opposite to the compound (I)-containing disk and an inhibition subzone formed on the compound (I)-containing disk side) by measurement along the center lines of the β-lactam agent-containing and compound (I)-containing disks (FIG. 1).
The inhibition subzone formed on the side opposite to the compound (I)-containing disk is not subject to the effect of the metallo-β-lactamase inhibitor. Thus, its radius can be minimized in the whole inhibition zone (e.g., the numerical value obtained here can be defined as “A1”, “B1” and “C1” for the β-lactam agents (A), (B) and (C), respectively (Table 1)). When no inhibition zone is formed, the radius of the disk can be used.
The inhibition subzone formed on the compound (I)-containing disk side is subject to the effect of the metallo-β-lactamase inhibitor. Thus, its radius can be maximized in the whole inhibition zone (e.g., the numerical value obtained here can be defined as “A2”, “B2” and “C2” for the β-lactam agents (A), (B) and (C), respectively (Table 1)). When no inhibition zone is formed, the radius of the disk can be used. Moreover, when the formed inhibition zone is wider than the distance between the disks, the distance from the center of the drug-containing disk to the compound (I)-containing disk can be used (e.g., “A2” in the flow 8 in the flowchart of FIG. 2 represents the distance from the center of the β-lactam agent (A)-containing disk to the compound (I)-containing disk).
The degree of change in the shape of the inhibition zone caused by the effect of the metallo-β-lactamase inhibitor can be measured as the ratio between the minimum and maximum radiuses of the inhibition zone, i.e., the degree of change in radius. For example, it can be calculated by dividing the maximum radius of the inhibition zone by the minimum radius thereof (e.g., this calculated value can be defined as “A3”, “B3”, and “C3”, respectively (Table 1)).
According to the disk diffusion method specified by CLSI, a Muller-Hinton agar medium was coated with a bacterial solution adjusted to McFarland standard turbidity of 0.5. No water droplet of the bacterial solution on the medium surface was confirmed, and round filter papers (diameter: approximately 6 mm) respectively containing 300 μg of a compound (I), 100 μg of biapenem as a drug (A), 100 μg of imipenem as a drug (B), and 300 μg of ceftazidime as a drug (C) were placed thereonto as drug-containing disks. The compound (I) used was a compound represented by the formula (I) wherein both R^1 and R^2 are an ethyl group, and M^1 is a sodium cation (disodium 2,3-diethylmaleate). The compound (I) was placed at the center of the agar medium, while the drugs (A) to (C) were placed such that the center of each disk was 20 mm distant from the center of the compound (I). After overnight culture at 35° C., the minimum and maximum radiuses of a growth inhibition zone around each disk were measured, and the degree of change in radius was calculated according to Table 1. The IMP or VIM MBL-producing bacteria were identified using a decision flow of FIG. 2.
In Example 2, bacteria to be tested were IMP-1-producing Pseudomonas aeruginosa. According to the disk diffusion method specified by CLSI, a Muller-Hinton agar medium was coated with the Pseudomonas aeruginosa, and disks were then placed thereonto.
In FIG. 4, the upper disk contained biapenem (BIPM) (A); the lower right disk contained imipenem (IPM) (B); the lower left disk contained ceftazidime (CAZ) (C); and the central disk was a compound (I)-containing disk. […]

| Structure (SMILES) | Ratio = Maximum/Minimum inhibition zone radius (degree of change in radius, A3/B3/C3) | Inhibition zone radius, Maximum (A2/B2/C2) [mm] | Inhibition zone radius, Minimum (A1/B1/C1) [mm] |
| --- | --- | --- | --- |
| CC(C)(O/N=C(\C(=O)N[C@@H]1C(=O)N2C(C(=O)[O-])=C(C[n+]3ccccc3)CS[C@H]12)c1csc(N)n1)C(=O)O [ceftazidime] | 4.1 | 14.5 | 3.5 |
| C[C@@H](O)[C@H]1C(=O)N2C(C(=O)[O-])=C(SC3Cn4cnc[n+]4C3)[C@H](C)[C@H]12 (stereo partly drawn) [biapenem] | 2.9 | 16.0 | 5.5 |
| C[C@@H](O)[C@H]1C(=O)N2C(C(=O)O)=C(SCCN=CN)C[C@H]12 [imipenem] | 2.2 | 14.0 | 6.5 |
